Laboratory results reported in ChEMBL document CHEMBL5257037, “Side Chain Cyclized Aromatic Amino Acids: Great Tools as Local Constraints in Peptide and Peptidomimetic Design” (J Med Chem, 2016).
Where a SMILES comes first, the peptide text is derived from it. Bridges are numbered along the chain shown (N, C = ends). [ ]: non-standard residue; d: D form. Aic = NC1(C(=O)O)Cc2ccccc2C1; dOrn = NCCC[C@@H](N)C(=O)O; Orn = NCCC[C@H](N)C(=O)O

What was measured:
[1] = target: Angiotensin-converting enzyme (Homo sapiens, UniProt P12821); experiment: Inhibition of angiotensin-converting enzyme (unknown origin)
Neprilysin [2] = target: Neprilysin (Homo sapiens, UniProt P08473); experiment: Inhibition of neutral endopeptidase (unknown origin)
[3] = target: T1, Angiotensin-converting enzyme (Oryctolagus cuniculus, UniProt P12822); experiment: Inhibition of rabbit lung angiotensin-converting enzyme; assay type: tissue-based
T1 sequence (P12822 whole entry): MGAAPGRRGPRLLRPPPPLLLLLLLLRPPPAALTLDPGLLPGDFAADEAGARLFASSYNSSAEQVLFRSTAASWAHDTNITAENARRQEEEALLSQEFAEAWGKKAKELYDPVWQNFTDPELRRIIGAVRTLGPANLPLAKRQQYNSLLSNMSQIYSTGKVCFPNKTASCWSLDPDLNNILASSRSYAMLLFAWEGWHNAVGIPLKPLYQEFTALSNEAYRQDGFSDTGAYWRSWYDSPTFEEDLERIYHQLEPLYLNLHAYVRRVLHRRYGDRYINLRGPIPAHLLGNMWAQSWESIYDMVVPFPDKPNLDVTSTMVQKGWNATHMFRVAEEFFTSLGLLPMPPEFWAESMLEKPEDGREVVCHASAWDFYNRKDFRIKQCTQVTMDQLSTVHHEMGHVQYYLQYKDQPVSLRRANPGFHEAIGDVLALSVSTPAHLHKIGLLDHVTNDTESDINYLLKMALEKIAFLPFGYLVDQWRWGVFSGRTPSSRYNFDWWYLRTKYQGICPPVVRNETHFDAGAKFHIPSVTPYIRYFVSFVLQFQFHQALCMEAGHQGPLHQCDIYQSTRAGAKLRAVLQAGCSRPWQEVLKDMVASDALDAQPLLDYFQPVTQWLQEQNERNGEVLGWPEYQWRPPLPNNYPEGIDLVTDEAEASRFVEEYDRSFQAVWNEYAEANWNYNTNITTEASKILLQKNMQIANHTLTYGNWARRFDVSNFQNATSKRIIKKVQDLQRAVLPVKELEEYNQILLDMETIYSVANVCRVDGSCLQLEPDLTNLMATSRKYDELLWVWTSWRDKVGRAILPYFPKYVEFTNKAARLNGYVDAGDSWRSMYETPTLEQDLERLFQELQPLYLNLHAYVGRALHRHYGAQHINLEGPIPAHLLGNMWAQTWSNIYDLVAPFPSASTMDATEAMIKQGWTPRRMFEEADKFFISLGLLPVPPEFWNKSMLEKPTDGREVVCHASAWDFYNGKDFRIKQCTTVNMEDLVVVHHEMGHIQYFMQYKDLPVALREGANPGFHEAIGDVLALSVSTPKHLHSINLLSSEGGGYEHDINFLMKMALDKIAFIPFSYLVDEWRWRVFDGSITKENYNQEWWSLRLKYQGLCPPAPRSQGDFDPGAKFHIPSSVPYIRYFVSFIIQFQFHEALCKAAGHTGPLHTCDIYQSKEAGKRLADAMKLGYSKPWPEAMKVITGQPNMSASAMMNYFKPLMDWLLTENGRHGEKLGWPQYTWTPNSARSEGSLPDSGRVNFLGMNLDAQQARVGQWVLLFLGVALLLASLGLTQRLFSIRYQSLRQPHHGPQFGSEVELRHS

[4] = target: T1, Angiotensin-converting enzyme; experiment: Binding affinity to angiotensin-converting enzyme in rabbit lung assessed as inhibition constant; assay type: tissue-based
Neprilysin [5] = target: T2, Neprilysin (Rattus norvegicus, UniProt P07861); experiment: Binding affinity to rat kidney neutral endopeptidase; assay type: tissue-based
T2 sequence (P07861 whole entry): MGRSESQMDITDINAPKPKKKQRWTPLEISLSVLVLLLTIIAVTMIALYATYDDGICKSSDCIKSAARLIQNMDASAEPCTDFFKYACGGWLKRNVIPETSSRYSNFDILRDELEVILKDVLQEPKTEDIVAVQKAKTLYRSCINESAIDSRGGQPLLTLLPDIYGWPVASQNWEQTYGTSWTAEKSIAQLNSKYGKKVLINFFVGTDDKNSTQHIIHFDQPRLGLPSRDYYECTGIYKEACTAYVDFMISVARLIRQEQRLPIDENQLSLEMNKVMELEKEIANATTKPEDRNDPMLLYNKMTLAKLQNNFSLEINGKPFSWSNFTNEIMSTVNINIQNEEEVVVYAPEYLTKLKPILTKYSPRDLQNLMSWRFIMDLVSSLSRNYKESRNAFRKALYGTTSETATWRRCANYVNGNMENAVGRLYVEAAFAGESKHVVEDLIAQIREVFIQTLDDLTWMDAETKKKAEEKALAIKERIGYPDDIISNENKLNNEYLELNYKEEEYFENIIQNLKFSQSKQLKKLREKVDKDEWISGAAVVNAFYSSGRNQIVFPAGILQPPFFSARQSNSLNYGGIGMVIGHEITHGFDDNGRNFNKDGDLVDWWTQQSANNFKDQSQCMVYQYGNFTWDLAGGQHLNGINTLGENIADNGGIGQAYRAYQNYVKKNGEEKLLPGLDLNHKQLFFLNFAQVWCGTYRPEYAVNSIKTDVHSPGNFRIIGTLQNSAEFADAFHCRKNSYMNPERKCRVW

[6] = target: Somatostatin receptor type 1 (Homo sapiens, UniProt P30872); experiment: Inhibition of human somatostatin receptor type 1
[7] = target: Somatostatin receptor type 2 (Homo sapiens, UniProt P30874); experiment: Inhibition of human somatostatin receptor type 2
[8] = target: Somatostatin receptor type 3 (Homo sapiens, UniProt P32745); experiment: Inhibition of human somatostatin receptor type 3
[9] = target: Somatostatin receptor type 4 (Homo sapiens, UniProt P31391); experiment: Inhibition of human somatostatin receptor type 4
[10] = target: Somatostatin receptor type 5 (Homo sapiens, UniProt P35346); experiment: Inhibition of human somatostatin receptor type 5
[11] = target: T3, Somatostatin receptor type 5 (Rattus norvegicus, UniProt P30938); experiment: Inhibition of rat somatostatin receptor type 5
T3 sequence (P30938 whole entry): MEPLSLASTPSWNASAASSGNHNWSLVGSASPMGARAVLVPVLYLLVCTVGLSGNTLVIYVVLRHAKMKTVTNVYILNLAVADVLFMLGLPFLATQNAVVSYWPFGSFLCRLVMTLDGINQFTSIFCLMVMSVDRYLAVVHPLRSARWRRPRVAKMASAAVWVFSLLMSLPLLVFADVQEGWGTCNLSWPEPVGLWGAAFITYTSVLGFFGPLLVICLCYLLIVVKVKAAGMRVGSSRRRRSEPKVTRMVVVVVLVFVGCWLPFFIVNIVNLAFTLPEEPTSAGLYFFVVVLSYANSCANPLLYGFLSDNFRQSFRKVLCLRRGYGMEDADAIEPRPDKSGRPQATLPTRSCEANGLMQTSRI

Renin = target: T4, Renin (Homo sapiens, UniProt P00797); experiment: Inhibition of human plasma renin; assay type: cell-free
T4 sequence (P00797 whole entry): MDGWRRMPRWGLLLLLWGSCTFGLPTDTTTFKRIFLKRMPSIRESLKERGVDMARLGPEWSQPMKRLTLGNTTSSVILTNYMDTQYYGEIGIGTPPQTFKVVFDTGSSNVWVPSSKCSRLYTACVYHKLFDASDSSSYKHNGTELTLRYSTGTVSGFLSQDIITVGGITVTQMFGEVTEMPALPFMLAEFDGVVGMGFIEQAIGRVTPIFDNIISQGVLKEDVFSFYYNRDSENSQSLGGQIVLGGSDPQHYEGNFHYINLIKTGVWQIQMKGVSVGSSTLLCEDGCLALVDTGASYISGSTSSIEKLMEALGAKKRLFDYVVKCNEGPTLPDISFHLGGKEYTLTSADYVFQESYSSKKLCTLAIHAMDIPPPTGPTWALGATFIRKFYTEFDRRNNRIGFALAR

[12] = Inhibition of angiotensin-converting enzyme (unknown origin)
Mu-type opioid receptor [13] = target: T5, Mu-type opioid receptor (Homo sapiens, UniProt P35372); experiment: Binding affinity to mu opioid receptor (unknown origin) assessed as inhibition constant
[14] = target: T6, Delta-type opioid receptor (Homo sapiens, UniProt P41143); experiment: Binding affinity to delta opioid receptor (unknown origin) assessed as inhibition constant
Mu-type opioid receptor [15] = target: T5, Mu-type opioid receptor; experiment: Inhibition of MOR (unknown origin)
[16] = target: T6, Delta-type opioid receptor; experiment: Inhibition of DOR (unknown origin)
Mus musculus = species on record: Mus musculus; experiment: Inhibition of electrically evoked mouse vas deferens contraction; assay type: functional

Compound: C[C@H](NC(=O)[C@@H](CS)Cc1ccccc1)C(=O)N1Cc2ccccc2C[C@H]1C(=O)O
- IC50 [1]: 14 nM
- IC50 (Neprilysin [2]): 3.9 nM

Compound: C[C@H](NC(=O)[C@@H](CS)Cc1ccccc1)C(=O)N1c2ccccc2C[C@H]1C(=O)O
- IC50 [1]: 7.8 nM
- IC50 (Neprilysin [2]): 2.6 nM

Compound: O=C(O)[C@H](CCc1ccccc1)N[C@H]1CCc2cccc3c2N(C1=O)[C@H](C(=O)O)C3
- IC50 [3]: 5.2 nM

Compound: O=C(N[C@H]1Cc2ccccc2[C@H]2CCC[C@@H](C(=O)O)N2C1=O)[C@@H](S)Cc1ccccc1
- Ki [4]: 0.11 nM
- Ki (Neprilysin [5]): 0.08 nM

Compound: CC(=O)N[C@@H](Cc1ccccc1)C(=O)N[C@]1(C)Cc2c([nH]c3ccccc23)CN([C@@H](CCCCN)C(=O)N[C@H](C(N)=O)[C@@H](C)O)C1=O
- IC50 [6]: > 1000 nM
- IC50 [7]: > 1000 nM
- IC50 [8]: > 1000 nM
- IC50 [9]: > 1000 nM
- IC50 [10]: > 1000 nM

Compound: CC(=O)N[C@@H](Cc1ccccc1)C(=O)N[C@@H]1Cc2c([nH]c3ccccc23)CN([C@@H](CCCCN)C(=O)N[C@H](C(N)=O)[C@@H](C)O)C1=O
- IC50 [6]: 253 nM
- IC50 [9]: 36 nM
- IC50 [11]: 217 nM

Compound: O=C(N[C@H]1Cc2ccccc2[C@H]2CCC[C@@H](C(=O)O)N2C1=O)[C@H](S)Cc1ccccc1
- Ki [4]: 4.5 nM
- Ki (Neprilysin [5]): 0.07 nM

Compound: CCCCNC(=O)[C@@H](C[C@H](O)[C@H](CC1CCCCC1)NC(=O)[C@H](CCCC)NC(=O)[C@H](Cc1ccccc1)NC(C)=O)C(C)C
- IC50 (Renin): 0.84 nM

Compound: CC(CS)C(=O)N1CCc2ccccc2C1C(=O)O (stereo not drawn)
- IC50 [12]: 58000 nM

Compound: CC(CS)C(=O)N1Cc2ccccc2C1C(=O)O (stereo not drawn)
- IC50 [12]: 14000 nM

Compound: CC(=O)N[C@@H](Cc1ccccc1)C(=O)N[C@@H](Cc1c[nH]c2ccccc12)C(=O)N[C@@H](CCCCN)C(=O)N[C@H](C(N)=O)[C@@H](C)O (Ac-FWKT-NH2)
- IC50 [6]: > 1000 nM
- IC50 [7]: > 1000 nM
- IC50 [8]: > 1000 nM
- IC50 [9]: > 1000 nM
- IC50 [10]: > 1000 nM

Compound: NC(=O)[C@@H]1CCC(=O)NCCC[C@H](NC(=O)[C@@H](N)Cc2ccc(O)cc2)C(=O)NC2(Cc3ccccc3C2)C(=O)N1 (H-Y[Orn][Aic]E-NH2; lactam 2-4)
- Ki (Mu-type opioid receptor [13]): 4.21 nM
- Ki [14]: 209 nM

Compound: C[C@@H](NC(=O)[C@@H](N)Cc1ccc(O)cc1)C(=O)N[C@@H](Cc1ccccc1)C(=O)NCC(N)=O (H-Y[dA]FG-NH2)
- IC50 (Mu-type opioid receptor [15]): 36.7 nM
- IC50 [16]: 1250 nM

Compound: CC(C)[C@H](NC(=O)[C@H](CC(=O)O)NC(=O)C1(NC(=O)[C@@H](C)NC(=O)[C@@H](N)Cc2ccc(O)cc2)Cc2ccccc2C1)C(=O)N[C@H](C(=O)NCC(N)=O)C(C)C (H-Y[dA][Aic]DVVG-NH2)
- Ki [14]: 4.96 nM
- IC50 (Mus musculus): 0.08 nM

Compound: NC(=O)[C@@H]1CCC(=O)NCCC[C@@H](NC(=O)[C@@H](N)Cc2ccc(O)cc2)C(=O)N[C@@H](Cc2ccccc2)C(=O)N1 (H-Y[dOrn]FE-NH2; lactam 2-4)
- Ki (Mu-type opioid receptor [13]): 0.98 nM
- Ki [14]: 3.21 nM
